Here are results for one compound from patent publication US20150299648A1, “IMPROVED CULTIVATION MEDIA AND PROCESS FOR IMPROVED PROTEIN PRODUCTION BY PICHIA STRAINS” (priority 2012, published 2015).

“Also recorded” adds a separate entry of the source.

For data set [1], the system named is glycoengineered P. pastoris (YGLY13979) strain producing a monoclonal antibody. In words: Effect of maltitol and Mix2 supplements on fed-batch fermentation profile. As to conditions: for Cell lysis: methanol induction phase. Type of data set: cell-based, Pichia pastoris. As to the method: The osmoprotective effect of maltitol (50 g/L) in combination with a supplement comprising a mixture of nutrients (Mix2) consisting of amino acid (AA1), vitamins (Vit4), trace metal ions (TM4), and basal salts (BSM2) as described in Table 2 was also evaluated using a glycoengineered P. pastoris (YGLY13979) strain producing a monoclonal antibody was cultivated in 1 L bioreactors (Biostat Q-plus, Satorius, Germany).
A P. pastoris YGLY13979 producing a monoclonal antibody was cultivated in 1 L bioreactors (Biostat Q-plus, Satorius, Germany). For fermentation in 1 L bioreactor, a vial (1 mL) of RCB (Research Cell Bank) was inoculated into 200 mL of BSGY medium in 1 L-baffled flask. The culture incubated at 24° C., while shaking on an orbital shaker at 180 rpm for 48±4 h. The bioreactor was inoculated with a 10% volumetric ratio of seed to initial BSGY medium. Cultivation conditions were following: temperature set at 24±0.5° C., pH controlled at 6.5±0.1 with 30% ammonium hydroxide, dissolved oxygen was maintained at 20% of saturation by cascading agitation rate on the addition of pure oxygen to the fixed airflow rate of 0.7 vvm. The fermentation profile of the production strain was examined using four different cultivation conditions after batch phase.
For the control, a 50% glycerol solution containing 12.5 mL/L of PTM1 salts (6.5 g FeSO4.7H2O, 2.0 g ZnCl2, 0.6 g CuSO4.5H2O, 3.0 g MnSO4.7H2O, 0.5 g CoCl2.6H2O, 0.2 g NaMoO4.2H2O, 0.2 g biotin, 80 mg NaI, 20 mg H3BO4 per L) was fed constantly at an initial rate of 0.08 h^−1 for 8 h After depletion of the initial glycerol (4%).
For Mix2, 10 mL AA1, 4 mL Vit4, 4 mL TM4, and 4 mL BSM2 were mixed with 62.5 mL of 80% glycerol and 15.5 mL of water. The Mix2 solution was fed during the glycerol fed-batch period instead of regular glycerol solution, which was used for the control.
For Maltitol, 43.5 mL of 80% matitol solution was added into bioreactor to achieve 50 g/L concentration at the end of glycerol fed-batch phase.
For Maltitol+Mix2, two conditions of Maltitol and Mix2 were combined.
Induction was initiated after a 30 min starvation phase when methanol was fed. Methanol containing 12.5 mL/L of PTM1 salts (6.5 g FeSO4.7H2O, 2.0 g ZnCl2, 0.6 g CuSO4.5H2O, 3.0 g MnSO4.7H2O, 0.5 g CoCl2.6H2O, 0.2 g NaMoO4.2H2O, 0.2 g biotin, 80 mg NaI, 20 mg H3BO4 per L) was fed constantly starting at 1.33 g/L/h under methanol limited condition. Agitation speed was changed from cascade mode with agitation speed and pure oxygen.

In data set [2] the test system is P. pastoris strain (YGLY27893) which produces an antibody Fc-fragment. In words: Effect of maltitol with or without sorbitol on cell robustness. Type of data set: cell-based, Pichia pastoris. As to conditions: BSGY medium with maltitol 50 g/L. As for the experimental part:
Using a P. pastoris strain (YGLY27893) which produces an antibody Fc-fragment, the osmoprotective effect of combining sorbitol and maltitol was tested as follows: sorbitol(−) maltitol(−); sorbito(+) maltitol(−); […] maltito(+). The concentrations of sorbitol and maltitol were 18 g/L and 50 g/L respectivetly. (Note: Sorbitol(+) maltito(−) is identical to BSGY medium).
The cell growth was expressed as [Cell (t)]/[Cell (0)]×100(%), here, [Cell (t)] is the wet cell weight at t (h) of induction and [Cell (0)] is the wet cell weight at 0 (h) of induction, because the cell density at the beginning of induction in each case was different due to absence or presence of sorbitol as a fermentable sugar. The cell was heavily lysed around 80 h of induction in BSGY medium without maltitol, whereas the cell was continuously grown for 150 h of induction in BSGY medium with maltitol (FIG. 4). I re-draw the FIG. 4 as shown in the last page (p 47 after FIG. 5).

The test system of data set [3] is P. pastoris YGLY 21058 strain. In words: Fermentability of sorbitol and maltitol determined by HPLC. Type of data set: cell-based, Pichia pastoris. As to conditions: BSGY; maltitol 50 g/L; methanol induction phase. As for the experimental part: The P. pastoris YGLY 21058 strain was cultivated in 1 L bioreactor and 50 g/L of maltitol was mixed in BSGY medium. The samples were taken at the beginning of fermentation, at the end of glycerol fed-batch before adding maltitol, and two different time-points in methanol induction phase, as shown in FIG. 3. The supernatant was separated by the centrifugation at 13,000 rpm for 1 minutes using micro-centrifuge. The samples properly diluted with distilled water were filtered using 0.2 μm-filter and the residual concentrations of sorbitol and maltitol were determined by HPLC using AMINEX HPX-87H column. The residence times (RTs) for sorbitol and maltitol were 11.5 and 9.3 min respectively. The data were shown in FIG. 3 as two independent runs of cultivation.

Data set [4] in a line: Osmolality of sugar and sugar alcohol solutions (osmometer). Type of data set: physicochemical. As to conditions: 500 mM in water. As for the experimental part:
The sugar and sugar alcohol solutions used as osmoprotectant supplements were prepared at 500 mM in water and their osmolalities were measured using Osmometer (Multi-somotte, Model 2430, Precision Systems Inc, MA, USA). The osmolality of solution was directly proportional to the concentration of component in solution. For instance there was a linear relationship between sorbitol concentration (mM) and osmolality of the solution (mOsm/kg) as shown in FIG. 1A. The osmolalities of maltitol, sorbitol, glycerol, and glucose at 500 mM in water were 590±4, 544±3, 541±3, and 568±0 mOsm/kg respectively (FIG. 1B). The osmolaties of sorbose, mellibiose, ribose, quinic acid and myo-inositol at 500 Mm in water were (480±5), (500±5), (470±5), (480±5) AND (510±10), respectively.

In the case of `OC[C@@H](O)[C@@H](O[C@H]1O[C@H](CO)[C@@H](O)[C@H](O)[C@H]1O)[C@H](O)[C@@H](O)CO` [Maltitol, 4-O-α-glucopyranosyl-D-sorbitol], the “Increase of maximum titer of anti-Her2 monoclonal antibody over control culture” value in data set [1] (5% maltitol, 600 mOsm/kg in induction phase) is listed as 120%. The Cell lysis entry in data set [1] (vs BSGY control) is “reduced the cell lysis significantly”; in data set [1] (vs BSGY control, listed as maltitol), “significantly reduced”. Further, the “Effective range of concentration in BSGY medium” value in data set [1] (to increase and maintain osmolality during induction phase) is recorded as “higher than 25 g/L”. Also, the Cell yield result in data set [1] (vs BSGY control) is recorded as “slight reduction of cell yield”. The “Time of continuous cell growth in induction” value in data set [2] was 150 h. In data set [3], the “Consumption / fermentability in fed-batch fermentation (residual concentration by HPLC)” value is given as “not consumed; also recorded: non-fermentable”. The compound also yielded an Osmolality of solution in data set [4] of 590±4 mOsm/kg.
